Test system: MV-4-11 cells
Test: Gene expression microarray analysis (Affymetrix PrimeView) and GSEA
Assay type: cell-based, human
Design: RFU PODN (11730768_x_at) / Fold change /veh PODN (11730768_x_at) / RFU LINC00158 (11744669_a_at) / Fold change /veh LINC00158 (11744669_a_at) / RFU DUSP10 (11751237_a_at) / Fold change /veh DUSP10 (11751237_a_at) / RFU ID3 (11757404_x_at) / Fold change /veh ID3 (11757404_x_at) / RFU PLEKHG5 (11737974_s_at) / Fold change /veh PLEKHG5 (11737974_s_at) / RFU LRRC4B (11730491_at) / Fold change /veh LRRC4B (11730491_at) / RFU GIMAP4 (11747438_a_at) / Fold change /veh GIMAP4 (11747438_a_at) / RFU KRT8 (11758183_x_at) / Fold change /veh KRT8 (11758183_x_at) / RFU CNN1 (11734310_a_at) / Fold change /veh CNN1 (11734310_a_at) / RFU VPS37D (11726825_at) / Fold change /veh VPS37D (11726825_at) / RFU C10orf10 (11716522_x_at) / Fold change /veh C10orf10 (11716522_x_at) / RFU KIR2DL2 /// KIR2DL4 /// KIR2DL5A /// KIR2DL5B /// KIR2DS1 /// KIR2DS2 /// KIR2DS3 /// KIR2DS4 /// KIR3DL3 /// KIR3DL3 /// KIR3DS1 (11738374_at) / Fold change /veh KIR2DL2 /// KIR2DL4 /// KIR2DL5A /// KIR2DL5B /// KIR2DS1 /// KIR2DS2 /// KIR2DS3 /// KIR2DS4 /// KIR3DL3 /// KIR3DL3 /// KIR3DS1 (11738374_at) / RFU C1QL1 (11718748_at) / Fold change /veh C1QL1 (11718748_at) / RFU TMPRSS4 (11747572_a_at) / Fold change /veh TMPRSS4 (11747572_a_at) / RFU HAMP (11756126_x_at) / Fold change /veh HAMP (11756126_x_at) / RFU RNFT2 (11725882_a_at) / Fold change /veh RNFT2 (11725882_a_at) / RFU NR4A2 (11747474_a_at) / Fold change /veh NR4A2 (11747474_a_at) / RFU ABCC12 (11746883_a_at) / Fold change /veh ABCC12 (11746883_a_at) / RFU TMEM136 (11760407_x_at) / Fold change /veh TMEM136 (11760407_x_at) / RFU CLDN22 /// WWC2 (11732394_at) / Fold change /veh CLDN22 /// WWC2 (11732394_at) / RFU HLA-DPB1 (11760878_x_at) / Fold change /veh HLA-DPB1 (11760878_x_at) / RFU SPINT1 (11716480_a_at) / Fold change /veh SPINT1 (11716480_a_at) / RFU GAP43 (11754022_s_at) / Fold change /veh GAP43 (11754022_s_at) / RFU A4GNT (11735810_at) / Fold change /veh A4GNT (11735810_at) / RFU PRB3 (11715151_x_at) / Fold change /veh PRB3 (11715151_x_at) / RFU TUBB4B (11761932_at) / Fold change /veh TUBB4B (11761932_at) / RFU CAPN14 (11732068_a_at) / Fold change /veh CAPN14 (11732068_a_at) / RFU TMCC2 (11721928_a_at) / Fold change /veh TMCC2 (11721928_a_at) / RFU IRGQ (11745062_a_at) / Fold change /veh IRGQ (11745062_a_at) / RFU FAM174B (11720279_a_at) / Fold change /veh FAM174B (11720279_a_at) / RFU TMPRSS4 (11748680_a_at) / Fold change /veh TMPRSS4 (11748680_a_at) / RFU FAM212B (11763350_a_at) / Fold change /veh FAM212B (11763350_a_at) / RFU PLEKHG5 (11743358_a_at) / Fold change /veh PLEKHG5 (11743358_a_at) / RFU ZSCAN30 (11745921_a_at) / Fold change /veh ZSCAN30 (11745921_a_at) / RFU CMKLR1 (11741424_a_at) / Fold change /veh CMKLR1 (11741424_a_at) / RFU LOC101060620 /// MAPK8IP1 (11723275_at) / Fold change /veh LOC101060620 /// MAPK8IP1 (11723275_at) / RFU SPTSSB (11747773_x_at) / Fold change /veh SPTSSB (11747773_x_at) / RFU PRSS12 (11739890_at) / Fold change /veh PRSS12 (11739890_at) / RFU BIN1 (11741810_x_at) / Fold change /veh BIN1 (11741810_x_at) / RFU WNT11 (11732464_a_at) / Fold change /veh WNT11 (11732464_a_at) / RFU C10orf10 (11716521_a_at) / Fold change /veh C10orf10 (11716521_a_at) / RFU C5orf56 (11738089_at) / Fold change /veh C5orf56 (11738089_at) / RFU CYB561 (11721691_x_at) / Fold change /veh CYB561 (11721691_x_at) / RFU ANKRD19P (11752326_a_at) / Fold change /veh ANKRD19P (11752326_a_at) / RFU OR2T12 /// OR2T33 /// OR2T8 (11738714_s_at) / Fold change /veh OR2T12 /// OR2T33 /// OR2T8 (11738714_s_at) / RFU VCAN (11748164_a_at) / Fold change /veh VCAN (11748164_a_at) / RFU JSRP1 (11732532_at) / Fold change /veh JSRP1 (11732532_at) / RFU KRTAP10-11 (11738290_x_at) / Fold change /veh KRTAP10-11 (11738290_x_at) / RFU MYO3A (11730013_a_at) / Fold change /veh MYO3A (11730013_a_at) / RFU EBF3 (11725865_a_at) / Fold change /veh EBF3 (11725865_a_at) / RFU CAMK2N1 (11719241_x_at) / Fold change /veh CAMK2N1 (11719241_x_at) / RFU C5orf56 (11738088_a_at) / Fold change /veh C5orf56 (11738088_a_at) / RFU OLFML3 (11715873_a_at) / Fold change /veh OLFML3 (11715873_a_at) / RFU LOC100653217 /// NTM (11731650_a_at) / Fold change /veh LOC100653217 /// NTM (11731650_a_at) / RFU MAPK11 (11762145_a_at) / Fold change /veh MAPK11 (11762145_a_at) / RFU FIZ1 (11724087_x_at) / Fold change /veh FIZ1 (11724087_x_at) / RFU OASL (11726364_x_at) / Fold change /veh OASL (11726364_x_at) / RFU SOX15 (11748057_x_at) / Fold change /veh SOX15 (11748057_x_at) / RFU CD79A (11719716_a_at) / Fold change /veh CD79A (11719716_a_at) / RFU HIST1H1D (11736915_at) / Fold change /veh HIST1H1D (11736915_at) / RFU CASKIN2 (11723855_a_at) / Fold change /veh CASKIN2 (11723855_a_at) / RFU LOC730098 (11760151_x_at) / Fold change /veh LOC730098 (11760151_x_at) / RFU OR4N2 (11742367_at) / Fold change /veh OR4N2 (11742367_at) / RFU PRRT2 (11749266_a_at) / Fold change /veh PRRT2 (11749266_a_at) / RFU SNX32 (11753110_a_at) / Fold change /veh SNX32 (11753110_a_at) / RFU CDHR5 (11726645_a_at) / Fold change /veh CDHR5 (11726645_a_at) / RFU RCAN1 (11760418_a_at) / Fold change /veh RCAN1 (11760418_a_at) / RFU FAM167A (11723789_a_at) / Fold change /veh FAM167A (11723789_a_at) / RFU FAM26E (11764081_at) / Fold change /veh FAM26E (11764081_at) / RFU ISYNA1 (11749810_s_at) / Fold change /veh ISYNA1 (11749810_s_at) / RFU ACY1 (11761880_at) / Fold change /veh ACY1 (11761880_at) / RFU 11764098_at / Fold change /veh 11764098_at / RFU SAMD14 (11745864_x_at) / Fold change /veh SAMD14 (11745864_x_at) / RFU NPB (11741838_a_at) / Fold change /veh NPB (11741838_a_at) / RFU TMPRSS6 (11731388_a_at) / Fold change /veh TMPRSS6 (11731388_a_at) / RFU KRTAP10-2 (11738614_at) / Fold change /veh KRTAP10-2 (11738614_at) / RFU ARHGAP8 /// PRR5-ARHGAP8 (11727945_x_at) / Fold change /veh ARHGAP8 /// PRR5-ARHGAP8 (11727945_x_at) / RFU KRTAP5-7 /// NADSYN1 (11734609_at) / Fold change /veh KRTAP5-7 /// NADSYN1 (11734609_at) / RFU RASL12 (11751679_a_at) / Fold change /veh RASL12 (11751679_a_at) / RFU CDKN2B (11736163_a_at) / Fold change /veh CDKN2B (11736163_a_at) / RFU PRF1 (11729649_at) / Fold change /veh PRF1 (11729649_at) / RFU, ZNF638 /// ZNF638-IT1 / Fold change vs veh, ZNF638 /// ZNF638-IT1 / RFU, PANK3 / Fold change vs veh, PANK3 / RFU, SH3YL1 / Fold change vs veh, SH3YL1 / RFU, ZEB2 / Fold change vs veh, ZEB2 / RFU, NRIP1 / Fold change vs veh, NRIP1 / RFU, PTTG1IP / Fold change vs veh, PTTG1IP / RFU, CAPN2 / Fold change vs veh, CAPN2 / RFU, MED14 / Fold change vs veh, MED14 / RFU, SNORA58 / Fold change vs veh, SNORA58 / RFU, C1orf63 / Fold change vs veh, C1orf63 / RFU, LRRFIP1 / Fold change vs veh, LRRFIP1 / RFU, NDUFAF7 / Fold change vs veh, NDUFAF7 / RFU, SLC12A2 / Fold change vs veh, SLC12A2 / RFU, IBTK / Fold change vs veh, IBTK / RFU, ESF1 / Fold change vs veh, ESF1 / Fold change vs veh, TMEM50B / RFU, TAOK1 / Fold change vs veh, TAOK1 / RFU, ACBD3 / Fold change vs veh, ACBD3 / RFU, TMA16 / Fold change vs veh, TMA16 / RFU, RWDD3 / Fold change vs veh, RWDD3 / RFU, BCAT1 / Fold change vs veh, BCAT1 / RFU, EDEM3 / Fold change vs veh, EDEM3 / RFU, TMEM33 / Fold change vs veh, TMEM33 / RFU, WDR75 / Fold change vs veh, WDR75 / RFU, AHCTF1 / Fold change vs veh, AHCTF1 / RFU, TFRC / Fold change vs veh, TFRC / RFU, ZDHHC17 / Fold change vs veh, ZDHHC17 / RFU, NOM1 / Fold change vs veh, NOM1 / RFU, ARL8B / Fold change vs veh, ARL8B / RFU, ZBTB11 / Fold change vs veh, ZBTB11 / RFU, TAMM41 / Fold change vs veh, TAMM41 / RFU, KIAA1704 /// LOC100996395 / Fold change vs veh, KIAA1704 /// LOC100996395 / RFU, ING1 / Fold change vs veh, ING1 / RFU, TRMT61B / Fold change vs veh, TRMT61B / RFU, FUBP3 / Fold change vs veh, FUBP3 / RFU, TP53 / Fold change vs veh, TP53 / RFU, TNKS2 / Fold change vs veh, TNKS2 / RFU, ZFP14 / Fold change vs veh, ZFP14 / RFU, ACTR2 / Fold change vs veh, ACTR2 / RFU, PPP3R1 / Fold change vs veh, PPP3R1 / RFU, PIK3R1 / Fold change vs veh, PIK3R1 / RFU, HNRNPA1 / Fold change vs veh, HNRNPA1 / RFU, RNF170 / Fold change vs veh, RNF170 / RFU, ZNF28 / Fold change vs veh, ZNF28 / RFU, RNGTT / Fold change vs veh, RNGTT / RFU, OGT / Fold change vs veh, OGT / RFU, BRD1 / Fold change vs veh, BRD1 / RFU, MARS / Fold change vs veh, MARS / RFU, ZNF655 / Fold change vs veh, ZNF655 / RFU, FAHD1 / Fold change vs veh, FAHD1 / RFU, BDP1 / Fold change vs veh, BDP1 / RFU, LRRCC1 / Fold change vs veh, LRRCC1 / RFU, ARID1A / Fold change vs veh, ARID1A / RFU, ZNF146 / Fold change vs veh, ZNF146 / RFU, ZNF330 / Fold change vs veh, ZNF330 / RFU, GPN3 / Fold change vs veh, GPN3 / RFU, C9orf123 / Fold change vs veh, C9orf123 / RFU, N4BP2L2 / Fold change vs veh, N4BP2L2 / RFU, ARFIP1 / Fold change vs veh, ARFIP1 / RFU, FAM179B / Fold change vs veh, FAM179B / RFU, BCL10 / Fold change vs veh, BCL10 / RFU, UHRF1BP1L / Fold change vs veh, UHRF1BP1L / RFU, BET1 / Fold change vs veh, BET1 / RFU, CNOT2 / Fold change vs veh, CNOT2 / RFU, ZNF268 / Fold change vs veh, ZNF268 / Fold change vs veh, ZNF507 / RFU, DGCR2 / Fold change vs veh, DGCR2 / RFU, WDSUB1 / Fold change vs veh, WDSUB1 / Fold change vs veh, HSP90B1 /// MIR3652 / RFU, ADSS / Fold change vs veh, ADSS / RFU, GK / Fold change vs veh, GK / RFU, ZNF148 / Fold change vs veh, ZNF148 / RFU, TAF9 / Fold change vs veh, TAF9 / RFU, SLC1A5 / Fold change vs veh, SLC1A5 / RFU, SLMO2 / Fold change vs veh, SLMO2 / RFU, ABCC4 / Fold change vs veh, ABCC4 / RFU, LOC101060439 /// RAP1B / Fold change vs veh, LOC101060439 /// RAP1B / RFU, RFX7 / Fold change vs veh, RFX7 / RFU, GTPBP10 / Fold change vs veh, GTPBP10 / RFU, CNEP1R1 / Fold change vs veh, CNEP1R1 / RFU, BIVM-ERCC5 /// ERCC5 / Fold change vs veh, BIVM-ERCC5 /// ERCC5 / RFU, ILF3 / Fold change vs veh, ILF3 / RFU 11762660_at / Fold change /veh 11762660_at / RFU VCAN (11757783_s_at) / Fold change /veh VCAN (11757783_s_at) / RFU DDX43 (11728927_at) / Fold change /veh DDX43 (11728927_at) / RFU KRT8 (11758188_x_at) / Fold change /veh KRT8 (11758188_x_at) / RFU NKD1 (11759106_at) / Fold change /veh NKD1 (11759106_at) / RFU SRD5A1 (11742802_a_at) / Fold change /veh SRD5A1 (11742802_a_at) / RFU TPSAB1 /// TPSB2 (11721975_s_at) / Fold change /veh TPSAB1 /// TPSB2 (11721975_s_at) / RFU GSTM3 (11746129_a_at) / Fold change /veh GSTM3 (11746129_a_at) / RFU IL23R (11737362_x_at) / Fold change /veh IL23R (11737362_x_at) / RFU TMEM51 (11727254_a_at) / Fold change /veh TMEM51 (11727254_a_at) / RFU PIWIL2 (11732686_x_at) / Fold change /veh PIWIL2 (11732686_x_at) / RFU ORM1 (11744905_x_at) / Fold change /veh ORM1 (11744905_x_at) / RFU CCDC152 (11743942_at) / Fold change /veh CCDC152 (11743942_at) / RFU ECM1 (11717891_a_at) / Fold change /veh ECM1 (11717891_a_at) / RFU IL23R (11748794_a_at) / Fold change /veh IL23R (11748794_a_at) / RFU TNFAIP8L3 (11732012_x_at) / Fold change /veh TNFAIP8L3 (11732012_x_at) / RFU MBOAT4 (11741988_at) / Fold change /veh MBOAT4 (11741988_at) / RFU 11764193_at / Fold change /veh 11764193_at / RFU TMEM53 (11763286_at) / Fold change /veh TMEM53 (11763286_at) / RFU MAGEB2 (11727129_at) / Fold change /veh MAGEB2 (11727129_at) / RFU TMEM200A (11744735_a_at) / Fold change /veh TMEM200A (11744735_a_at) / RFU CCDC152 (11751479_a_at) / Fold change /veh CCDC152 (11751479_a_at) / RFU FAM211A (11726209_a_at) / Fold change /veh FAM211A (11726209_a_at) / RFU RGS16 (11746705_a_at) / Fold change /veh RGS16 (11746705_a_at) / RFU VCAN (11755009_s_at) / Fold change /veh VCAN (11755009_s_at) / RFU RHOB (11743442_s_at) / Fold change /veh RHOB (11743442_s_at) / RFU RGS16 (11720943_a_at) / Fold change /veh RGS16 (11720943_a_at) / RFU RGS16 (11720944_at) / Fold change /veh RGS16 (11720944_at) / RFU, VPS4B / Fold change vs veh, VPS4B / RFU, CREB1 / Fold change vs veh, CREB1 / RFU, DNAJC13 / Fold change vs veh, DNAJC13 / RFU, GNAQ / Fold change vs veh, GNAQ / RFU, CDK5R1 / Fold change vs veh, CDK5R1 / RFU, ZRANB3 / Fold change vs veh, ZRANB3 / RFU, CUL4A / Fold change vs veh, CUL4A / RFU, CCNY / Fold change vs veh, CCNY / RFU, UFL1 / Fold change vs veh, UFL1 / RFU, COG3 / Fold change vs veh, COG3 / RFU, DIAPH2 / Fold change vs veh, DIAPH2 / RFU, SKA2 / Fold change vs veh, SKA2 / RFU, AFF3 / Fold change vs veh, AFF3 / RFU, LMF1 / Fold change vs veh, LMF1 / RFU, IPO11 / Fold change vs veh, IPO11 / RFU, DFFB / Fold change vs veh, DFFB / RFU, FOXP1 / Fold change vs veh, FOXP1 / RFU, CARD8 / Fold change vs veh, CARD8 / RFU, STRN3 / Fold change vs veh, STRN3 / RFU, ADK / Fold change vs veh, ADK / RFU, RASSF2 / Fold change vs veh, RASSF2 / RFU, WIPF1 / Fold change vs veh, WIPF1 / RFU, LARP1B / Fold change vs veh, LARP1B / RFU, RASA1 / Fold change vs veh, RASA1 / RFU, RB1 / Fold change vs veh, RB1 / RFU, PPFIA1 / Fold change vs veh, PPFIA1 / RFU, MAT2A / Fold change vs veh, MAT2A / RFU, CCT5 / Fold change vs veh, CCT5 / RFU, WDR92 / Fold change vs veh, WDR92 / RFU, CUX1 / Fold change vs veh, CUX1 / RFU, TTC7A / Fold change vs veh, TTC7A / RFU, TMEM135 / Fold change vs veh, TMEM135 / RFU, DEPTOR / Fold change vs veh, DEPTOR / RFU, CPM / Fold change vs veh, CPM / RFU, DNAJB6 / Fold change vs veh, DNAJB6 / RFU, CACNA2D3 / Fold change vs veh, CACNA2D3 / RFU, DTX4 / Fold change vs veh, DTX4 / RFU, TFCP2 / Fold change vs veh, TFCP2 / RFU, GMCL1 /// GMCL1P1 / Fold change vs veh, GMCL1 /// GMCL1P1 / RFU, AEBP2 / Fold change vs veh, AEBP2 / RFU, SNHG1 /// SNORD22 /// SNORD25 /// SNORD26 /// SNORD27 /// SNORD28 /// SNORD29 /// SNORD31 / Fold change vs veh, SNHG1 /// SNORD22 /// SNORD25 /// SNORD26 /// SNORD27 /// SNORD28 /// SNORD29 /// SNORD31 / Fold change (Aza/veh), C12orf56 (ProbeSet 11735607_a_at) / Fold change (ACY-1035/veh), C12orf56 (ProbeSet 11735607_a_at) / Fold change (Aza/veh), FGFR1OP (ProbeSet 11751329_s_at) / Fold change (ACY-1035/veh), FGFR1OP (ProbeSet 11751329_s_at) / Fold change (Aza/veh), VPS36 (ProbeSet 11739960_a_at) / Fold change (ACY-1035/veh), VPS36 (ProbeSet 11739960_a_at) / RFU SYPL1 (11715823_x_at) / Fold change /veh SYPL1 (11715823_x_at) / RFU IGFBP7 (11715501_s_at) / Fold change /veh IGFBP7 (11715501_s_at) / RFU REEP3 (11722064_at) / Fold change /veh REEP3 (11722064_at) / RFU IGLL1 (11728026_x_at) / Fold change /veh IGLL1 (11728026_x_at): dose or concentration left out as unconfirmed
Details: MV-4-11 cells, 48 hours

Question: With Nc1ncn([C@@H]2O[C@H](CO)[C@@H](O)[C@H]2O)c(=O)n1 [azacitidine] as the compound, how does the “RFU TNFAIP8L3 (11732012_x_at)” value read?
Answer: 9.37 RFU

— paper PMC5218480 (PLoS ONE, 2017)
